IC50 data for three molecules are collected here from patent US20210038566A1, “USE OF MODULATORS OF NEET PROTEINS FOR THE TREATMENT OF INFECTION” (ENYO PHARMA, priority 2018, published 2021).

Broadly, the pIC50 is the IC50 on a negative log10 scale, so that one unit is a factor of ten.

pIC50: −log10 of the molar value.

The subject of the assay is H1N1 (influenza A/New Caledonia/20/99). In words: microbe, parasite or virus in culture. In kind it is cell-based. As to conditions: H1N1, A549, 48 h, read-out: IC50 (antiviral effect, Influenza replication).
On to `COc1ccc(C(=O)Nc2sc3c(c2C(=O)O)CCC(C)(C)C3)cc1OC` [Compound #18], for which the pIC50 was 7.30.

As to `CCOC(=O)N1CCC(NC(=S)Nc2cc(Cl)cc(Cl)c2)CC1` [Compound T01001, ethyl-4-(3-(3,5-dichlorophenyl)thioureido)piperidine-1-carboxylate], the pIC50 was 4.74.

As for `CCc1ccc(CCOc2ccc(CC3SC(=O)NC3=O)cc2)nc1` (stereo not drawn) [Pioglitazone], the negative-log IC50 (pIC50) was 4.42.
